Results as given in patent US8101171B2, “Modulators of the development of mychorrizal fungi with arbuscules, and uses thereof” (priority 2004, dated 2012).
Marks after values point to notes of the source that are not given here.

Experiments:
Gigaspora rosea = assay: Oxygraph measurement of cell respiration of Gigaspora rosea; assay type: cell-based; conditions: for % stimulation (respiration, average of 3 tests): GR7 0.1 μM final
Description: The control is carried out using 10 μl of methanol/water (v/v) per ml of medium.
Two independent series of experiments were carried out, after 4 hours' stimulation (series 1) and after 5½ hours' stimulation (series 2).
For each, the values recorded correspond to the averages of 3 tests.

Gigaspora rosea spores [1] = assay: Stimulation of hypha branching and elongation of Gigaspora rosea by GR7; assay type: cell-based
Description: Gigaspora rosea spores are germinated in gelosed medium M for 5 days at 30° C. and in an atmosphere enriched with 2% CO2. 10 μl of test agent solution are then added to the medium by introduction into a well hollowed out in the gelose, starting from a solution having a concentration of test agent varying from 10^−5 to 10^−11 M. The controls receive only the solvent for the test agents (10 μl of 50% methanol) under the same conditions.
The apexes formed are counted after 48 hours' treatment. In addition, the elongation activity is evaluated by measuring the number of cm formed before and after treatment. Two series of experiments, with different concentrations of GR7, were carried out.

[2] = system: Medicago truncatula / Gigaspora rosea; assay: In vitro mycorrhization of Medicago truncatula by Gigaspora rosea (points of contact between fungus and roots); assay type: in vivo; conditions: GR7 0.1 μM in medium M, 3 weeks, 8 plants; control (methanol) 2.2; P = 0.02 Mann-Whitney
Description: Measurements of the number of points of contact established between the fungus and the roots during in vitro mycorrhization experiments were carried out. Medicago truncatula plants were cultivated in vitro in the presence of Gigaspora rosea spores, on medium M enriched with GR7.
For the tests, medium M prepared as above is enriched with GR7 to give a final concentration of 0.1 μM. The controls are carried out with medium M to which methanol is added to give a final concentration of 0.1%. The medium is poured into square Petri dishes (100×100). Three control dishes and three test dishes are prepared. The Gigaspora rosea spores are pre-germinated in those dishes (25 per dish) in an oven at 30° C., with 2% CO2, for 6 days. The Medicago truncatula seeds are sterilized with Javel water at 8 degrees chlorimetric for 5 minutes. After rinsing with sterile distilled water, they are germinated on a medium composed of bacteriological agar with 1 μM gibberellin. After 24 hours at 4° C., they are transferred into a chamber at 25° C. for 24 hours. Eighteen plantlets so prepared are then distributed randomly in the six experimental dishes containing the spores in the process of germinating. […]
The number of points of contact established between the fungus and the roots is counted plant by plant after observation under a microscope.

[3] = system: Glomus intraradices spores; assay: Polarographic measurement of oxygen consumption (cell respiration) of germinating Glomus intraradices spores; assay type: cell-based; conditions: GR24 0.3 μM final
Description: Polarographic measurements of oxygen consumption were carried out on Glomus intraradices spores in germination, in the presence or absence of GR24.
400 spores in 1 ml of medium M are used per test.
In order to stimulate the spores, there are added to each test 10 μl of a 30 μM solution of GR24 in acetone (1%), namely a final concentration of GR24 of 0.3 μM. The controls receive 10 μl of acetone (1%).
The oxygen consumption is measured using an oxygen electrode, known as a Clark electrode (Hansatech Ltd, Hardwick Industrial, Norfolk, United Kingdom), inserted into a Plexiglass chamber. The oxygen electrode is connected to a recorder calibrated between 0 and 100% with atmospheric oxygen.
The spores are introduced into the chamber, and the temperature is maintained at 30° C. by means of a circulating water bath. The rates of oxygen consumption are read directly from the recorder. The measurements of oxygen consumption are carried out over 15 minutes, after 4 hours' stimulation (series 1) and after 5½ hours' stimulation (series 2).
Two independent series of experiments were carried out. For each, the recorded values correspond to the average of 3 tests.
The increase in oxygen consumption is expressed as a percentage relative to that of the control, treated with acetone.

Gigaspora rosea spores [4] = assay: Stimulation of the branching of the hyphae of Gigaspora rosea by GR24 (newly formed apexes); assay type: cell-based
Source text: The stimulated branching of the hyphae (appearance of new apexes) is the test currently employed to evaluate the stimulating activity of various effectors on endomycorrhizal fungi of the genus Gigaspora. This phenomenon occurs naturally close to the roots of host plants, as well as under the action of root exudates, and is considered to be a preparatory phase to the establishment of symbiosis (Buée et al., Molecular Plant-Microbe Interaction, 2000, 13:693-698). This increase in branching is the result of stimulation of the fungus metabolism and leads to an increase in the points of contact between the fungus and the roots of the plant. Any increase in the branching of the hyphae of the fungus increases mycorrhization.
Measurements of branching (expressed as the number of apexes appearing after stimulation) of the germinative tubes of Gigaspora rosea were carried out in the presence of various concentrations of GR24.
To that end, Gigaspora rosea spores are germinated in gelosed medium M (medium M containing 0.4% (w/v) Phytagel®—SIGMA, France) for 5 days at 30° C. and in an atmosphere enriched with 2% CO2. 10 μl of test agents (in concentrations varying from 10^−8 to 10^−15 M) in solution in 50% methanol are then added to the medium by introduction into a well hollowed out in the gelose.
The controls receive the solvent for the test molecules (10 μl of 50% methanol) under the same conditions.
48 hours after treatment, the apexes formed above the stimulation zone are counted. Two series of experiments with GR24, at different concentrations, were carried out.

[5] = Series 1: after 4 hours' stimulation
[6] = Series 2: after 5½ hours' stimulation
[7] = GR7 10^−5 M, Series 1, relative to control
[8] = GR7 10^−5 M, Series 2, relative to control
[9] = GR7 10^−7 M, Series 1, relative to control
[10] = GR7 10^−7 M, Series 2, relative to control
[11] = GR7 10^−9 M, Series 1, relative to control
[12] = GR7 10^−9 M, Series 2, relative to control
[13] = GR7 10^−11 M, Series 1, relative to control
[14] = GR7 10^−11 M, Series 2, relative to control

`CC1=CC(O/C=C2/C(=O)OC3CC=CC23)OC1=O` (stereo not drawn) [GR7] was tested, and the “% stimulation (respiration, average of 3 tests)” value (Gigaspora rosea; [5]) was 24.0%, the “% stimulation (respiration, average of 3 tests)” value (Gigaspora rosea; [6]) was 33.6% and the “Activity on the respiration of Gigaspora rosea” value (Gigaspora rosea; final concentration 0.1 μM, after 5 hours' stimulation) was “active”. The cm newly formed/spore (Gigaspora rosea spores [1]; GR7 10^−5 M, Series 1) was 4.88 cm, the “Number of newly formed apexes” value (Gigaspora rosea spores [1]; GR7 10^−5 M, Series 1, after 48 hours' treatment) was 9.3 and the Branching stimulation ratio (Gigaspora rosea spores [1]; [7]) was 5.31. The Growth stimulation ratio (Gigaspora rosea spores [1]; [7]) was 4.44, the cm newly formed/spore (Gigaspora rosea spores [1]; GR7 10^−5 M, Series 2) was 6.5 cm and the “Number of newly formed apexes” value (Gigaspora rosea spores [1]; GR7 10^−5 M, Series 2, after 48 hours' treatment) was 14.25. It also gave a Branching stimulation ratio (Gigaspora rosea spores [1]; [8]) of 6.59, a Growth stimulation ratio (Gigaspora rosea spores [1]; [8]) of 2.60 and a cm newly formed/spore (Gigaspora rosea spores [1]; GR7 10^−7 M, Series 1) of 4.65 cm. The “Number of newly formed apexes” value (Gigaspora rosea spores [1]; GR7 10^−7 M, Series 1, after 48 hours' treatment) was 8.75, the Branching stimulation ratio (Gigaspora rosea spores [1]; [9]) was 5 and the Growth stimulation ratio (Gigaspora rosea spores [1]; [9]) was 4.23. The cm newly formed/spore (Gigaspora rosea spores [1]; GR7 10^−7 M, Series 2) was 5.09 cm, the “Number of newly formed apexes” value (Gigaspora rosea spores [1]; GR7 10^−7 M, Series 2, after 48 hours' treatment) was 10.42 and the Branching stimulation ratio (Gigaspora rosea spores [1]; [10]) was 4.82. For the same compound, the Growth stimulation ratio (Gigaspora rosea spores [1]; [10]) was 2.04, the cm newly formed/spore (Gigaspora rosea spores [1]; GR7 10^−9 M, Series 1) was 2.62 cm and the “Number of newly formed apexes” value (Gigaspora rosea spores [1]; GR7 10^−9 M, Series 1, after 48 hours' treatment) was 8. The Branching stimulation ratio (Gigaspora rosea spores [1]; [11]) was 4.57, the Growth stimulation ratio (Gigaspora rosea spores [1]; [11]) was 2.38 and the cm newly formed/spore (Gigaspora rosea spores [1]; GR7 10^−9 M, Series 2) was 4.99 cm. For the same compound, the “Number of newly formed apexes” value (Gigaspora rosea spores [1]; GR7 10^−9 M, Series 2, after 48 hours' treatment) was 6.16, the Branching stimulation ratio (Gigaspora rosea spores [1]; [12]) was 2.85 and the Growth stimulation ratio (Gigaspora rosea spores [1]; [12]) was 2.00. The cm newly formed/spore (Gigaspora rosea spores [1]; GR7 10^−11 M, Series 1) was 2.65 cm, the “Number of newly formed apexes” value (Gigaspora rosea spores [1]; GR7 10^−11 M, Series 1, after 48 hours' treatment) was 5.16 and the Branching stimulation ratio (Gigaspora rosea spores [1]; [13]) was 2.94. The Growth stimulation ratio (Gigaspora rosea spores [1]; [13]) was 2.41, the cm newly formed/spore (Gigaspora rosea spores [1]; GR7 10^−11 M, Series 2) was 2.23 cm and the “Number of newly formed apexes” value (Gigaspora rosea spores [1]; GR7 10^−11 M, Series 2, after 48 hours' treatment) was 2.66. The Branching stimulation ratio (Gigaspora rosea spores [1]; [14]) was 1.23, the Growth stimulation ratio (Gigaspora rosea spores [1]; [14]) was 0.89 and the “Activity on branching (number of newly formed apexes)” value (Gigaspora rosea spores [1]; doses of the nanomolar order) was “significantly active”. The “Activity on cell elongation” value (Gigaspora rosea spores [1]; doses of the nanomolar order) was “significantly active” and the “Average points of contact (fungus-roots, per plant)” value [2] was 7.75*.
In the case of `CC1=CC(O/C=C2/C(=O)OC3c4ccccc4CC23)OC1=O` (stereo not drawn) [GR24], the “% stimulation (increase in oxygen consumption relative to control, average of 3 tests)” value [3, 5] is reported as 29.0%, the “% stimulation (increase in oxygen consumption relative to control, average of 3 tests)” value [3, 6] is reported as 76.6% and the Apex/spore (Gigaspora rosea spores [4]; GR24 10^−8 M, Series 1, 48 hours after treatment) is reported as 16.3. The “Number of newly formed apexes” value (Gigaspora rosea spores [4]; GR24 10^−8 M, Series 1, 48 hours after treatment, 4 spores) was 65, the Stimulation factor (Gigaspora rosea spores [4]; GR24 10^−8 M, Series 1, relative to control) was 5.4 and the Apex/spore (Gigaspora rosea spores [4]; GR24 10^−8 M, Series 2, 48 hours after treatment) was 14.0. The “Number of newly formed apexes” value (Gigaspora rosea spores [4]; GR24 10^−8 M, Series 2, 48 hours after treatment, 1 spore) was 14, the Stimulation factor (Gigaspora rosea spores [4]; GR24 10^−8 M, Series 2, relative to control) was 4.0 and the Apex/spore (Gigaspora rosea spores [4]; GR24 10^−10 M, Series 1, 48 hours after treatment) was 15.0. For the same compound, the “Number of newly formed apexes” value (Gigaspora rosea spores [4]; GR24 10^−10 M, Series 1, 48 hours after treatment, 3 spores) was 45, the Stimulation factor (Gigaspora rosea spores [4]; GR24 10^−10 M, Series 1, relative to control) was 5.0 and the Apex/spore (Gigaspora rosea spores [4]; GR24 10^−10 M, Series 2, 48 hours after treatment) was 13.3. The “Number of newly formed apexes” value (Gigaspora rosea spores [4]; GR24 10^−10 M, Series 2, 48 hours after treatment, 3 spores) was 40, the Stimulation factor (Gigaspora rosea spores [4]; GR24 10^−10 M, Series 2, relative to control) was 3.8 and the Apex/spore (Gigaspora rosea spores [4]; GR24 10^−12 M, Series 1, 48 hours after treatment) was 9.0. The “Number of newly formed apexes” value (Gigaspora rosea spores [4]; GR24 10^−12 M, Series 1, 48 hours after treatment, 4 spores) was 36, the Stimulation factor (Gigaspora rosea spores [4]; GR24 10^−12 M, Series 1, relative to control) was 3.0 and the Apex/spore (Gigaspora rosea spores [4]; GR24 10^−12 M, Series 2, 48 hours after treatment) was 8.5. The “Number of newly formed apexes” value (Gigaspora rosea spores [4]; GR24 10^−12 M, Series 2, 48 hours after treatment, 4 spores) was 34, the Stimulation factor (Gigaspora rosea spores [4]; GR24 10^−12 M, Series 2, relative to control) was 2.4 and the Apex/spore (Gigaspora rosea spores [4]; GR24 10^−15 M, Series 1, 48 hours after treatment) was 3.8. The “Number of newly formed apexes” value (Gigaspora rosea spores [4]; GR24 10^−15 M, Series 1, 48 hours after treatment, 4 spores) was 15, the Stimulation factor (Gigaspora rosea spores [4]; GR24 10^−15 M, Series 1, relative to control) was 1.3 and the Apex/spore (Gigaspora rosea spores [4]; GR24 10^−15 M, Series 2, 48 hours after treatment) was 8.5. The “Number of newly formed apexes” value (Gigaspora rosea spores [4]; GR24 10^−15 M, Series 2, 48 hours after treatment, 2 spores) was 17, the Stimulation factor (Gigaspora rosea spores [4]; GR24 10^−15 M, Series 2, relative to control) was 2.4 and the “Stimulating effect on branching” value (Gigaspora rosea spores [4]; doses lower than picomolar) was “a clear stimulating effect is still observed”. The “Stimulation of branching (factor)” value (Gigaspora rosea spores [4]; submicromolar doses of GR24) was 5.
